Results taken from US5484778A, “Phthalocyanine photosensitizers for photodynamic therapy and methods for their use” (priority 1993, dated 1996).
“Also recorded” adds a separate entry of the source.

Assays:
[1] = system: V79 cells; assay: Clonogenicity, killing of V79 cells using photodynamic therapy (Table 3); format: cell-based, Chinese hamster; conditions: for photosensitizing activity, killing V79 cells (in words): discussion of Table 3
Protocol: Using the cell culture methods described above, V79 cells Chinese hamster lung fibroblasts were treated with either 0.5 or 1.0 μM of the phthalocyanines listed in Table 3. About 18 hours thereafter, the cells were irradiated with increasing doses of 675 nm broad band red light from a 500 W tungsten-halogen lamp fitted with a 600 nm high pass filter, to determine the light dosage that would kill 90% of the phthalocyanine treated cells. Where 90% of the cells were not killed, the maximum percent of cells killed were determined, (expressed as % survival) and the related light dosage recorded.

[2] = system: L5178Y cells; assay: Induction of apoptosis (DNA fragmentation) in L5178Y-R cells (Table 6); format: cell-based, mouse; conditions: for apoptosis (in words): various concentrations and fluences
Protocol: (§1) Mouse lymphoma L5178y-R (hereinafter also referred to as "LY-R") cells were grown in suspension culture as described in Ramakrishnan N., Oleinick, N. L. Clay, M. E., Horng, M. F., Antunez, A. R., and Evans H. H., DNA lesions and DNA degradation in mouse lymphoma L5178Y cells after photodynamic treatment sensitized by chloroaluminum phthalocyanine. Photochem. Photobiol. 50, 373-378, 1989 and Agarwal, M. L., Clay, M. E., Harvey, E. J., Evans, H. H., Antunez, A. R., and Oleinick, N. L. Photodynamic therapy induces rapid cell death by apoptosis in L5178Y mouse lymphoma cells. Cancer Res., 51, 5993-5996, 1991.
(§2) The cells were used while in exponential growth. Stock solutions of either 0.5 or 1 mM of PcIV, PcXII, PcX, PcXVIII were prepared in dimethylformamide unless otherwise indicated and added to the 10 mL medium at a rate of 1 μL per mL. After allowing 18 hours for uptake of the phthalocyanine into the cells, the flasks containing the cultures were placed on a glass exposure tray above a 500-W tungsten-halogen lamp. The exposure tray was fitted with a 600-nm high-pass filter. Flasks were exposed to various fluences of red light (up to 30 kJ/m^2) at a fluence rate of approximately 74 W/m^2). After irradiation, the cells were collected by centrifugation.
(§3) For measurement of clonogenic cell survival, aliquots were plated in medium containing soft agar as described in Ramakrishnan N., Oleinick, N. L. Clay, M. E., Horng, M. F., Antunez, A. R., and Evans H. H., DNA lesions and DNA degradation in mouse lymphoma L5178Y cells after photodynamic treatment sensitized by chloroaluminum phthalocyanine. Photochem. Photobiol. 50, 373-378, 1989. The aliquots were plated in sufficient numbers to produce 50-200 colonies. The dishes were kept in an incubator at 37° C. in an atmosphere of 5% CO2 and 95% air for 10-14 days to allow viable cells to form colonies. Colonies were counted by eye. Controls treated with the phthalocyanine alone had plating efficiencies of ~90%. The plating efficiencies of the treated cells are normalized to the plating efficiencies of control cells in each experiment. For measurement of the induction of apoptosis, DNA was isolated from the treated and control cells 2 hours after photodynamic therapy, subjected to electrophoresis on 1.5% agarose, stained with ethidium bromide, and visualized by UV transillumination, as described in Agarwal et. al. The results are shown in Tables 4, 5 and 6 and in FIG. 3.
Cells were treated with various concentrations of the compounds listed in the table and various light fluences. DNA gels were prepared and examined for the characteristic "ladder" pattern of DNA fragments. For each Pc, the minimum total PDT dose tested (calculated as the product of the minimum phthalocyanine concentration and the minimum fluence) which produced visible DNA fragments is recorded. […] PcXVIII was also added at 0.5 and 1.0 μM.

[3] = system: V79 cells
Protocol: V79 cells Chinese hamster lung fibroblasts were cultured using the cell culture methods described above. […] When the filters were dry, the phthalocyanines were extracted into ethanol and the absorption determined at the peak wavelength, usually 668 nm.

[4] = system: RIF-1 tumors; assay: PDT of RIF-1 implanted tumors (Table 7); format: in vivo, C3H/HeN mice; conditions: for effect on tumor volume / growth (in words): 1 mg/kg; for Doubling Time of Initial Tumor Volume after PDT: 1 mg/kg in corn oil, 675 nm, 135 J/cm^2
Protocol: The relative effectiveness at reducing tumor volume of selected phthalocyanine compounds at a given dosage was compared in vivo. RIF-1, i.e., radiation-induced fibrosarcoma, tumors were implanted into the backs of C3H/HeN mice. One tumor was implanted per mouse. Each of the phthalocyanine compounds listed in Table 7 was sonicated and vortexed in corn oil to produce a suspension. When the tumors reached […] in diameter and 2-3 mm in thickness, each mouse received 1 mg/kg in 0.1 ml of the corn oil, of the phthalocyanine suspension. For comparison, select mice received a conventional photosensitizer; either 5 mg/kg of chloroaluminum phthalocyanine tetrasulfonate, herein also referred to as "AlPcTS" in phosphate buffered saline or 5 mg/kg of Photofrin®-II in 5% dextrose. Twenty-four hours after the photosensitizers were administered, the tumors were irradiated with visible radiation delivered by an argon-pumped dye laser. The mice that received a phthalocyanine photosensitizer received light having a wavelength of 675 nm and the mice that received the Photofrin® II photosensitizer received light having a wavelength of 630 nm. Each tumor received 135 J/cm^2 of radiation. Tumor size was measured every day using calipers. The initial tumor volume was 50±10 mm^3. Tumor volume was calculated according to the hemiellipsoid model by the formula: [formula] Where l is length Where W is width

[5] = system: L5178Y-R (LY-R) cells; assay: Clonogenic survival of PDT-treated L5178Y-R cells (Tables 4 and 5, FIG. 3); format: cell-based, mouse; conditions: 0.5 μM; for activity relative to PcXII: from Table 5; for LD 90: fluence reducing survival to 10%; for LD50: fluence reducing survival to 50%
Protocol: as §1, §2, §3
In Table 4 each phthalocyanine was present at 0.5 μM, and the normalized plating efficiencies are presented as mean and standard deviation at each fluence tested. […] This relative activity of these four phthalocyanines is the same as obtained from screening in V79 cells.
PcXII when present in the culture medium at 0.5 μM requires less light, that is the lowest fluence, to kill either 50% […] of the cells. PcIV is about 80% as active as PcXII, PcX is 44% as active as PcXII and PcXVIII is 22% as active as PcXII.

[6] = 0.5 μM, 18 h, light dose killing 90% of cells

Compound	Uptake (from Table 2) [3]	Uptake into V79 cells, composite value [3]	effect on tumor volume / growth (in words) [4]	Doubling Time of Initial Tumor Volume after PDT [4]	LD 90 [1, 6]	Minimum Demonstrated Condition to induce apoptosis: C × F ([2]; 0.5 μM)	Minimum Demonstrated Condition to induce apoptosis: Fluence ([2]; 0.5 μM)	Minimum Demonstrated Condition to induce apoptosis: C × F ([2]; 1.0 μM)	Minimum Demonstrated Condition to induce apoptosis: Fluence ([2]; 1.0 μM)	apoptosis (in words) [2]	other results
SiPc[OSi(CH3)2 (CH2)4 NHSO2 CH3 ]2 [Compound VIII]	0.2 n Moles/10^6 cells/μM	0.2 n Moles/10^6 cells/μM	the doubling of tumor volume was delayed in the animals treated with each of the compounds except PcVIII	4 days	–	–	–	–	–	–	Maximum Effect (% survival) ([1]; 1 μM, at 30 kJ/m^2): 94%; induction of apoptosis ([2]; 1 μM at a fluence of 30 kJ/m^2): did not induce apoptosis
CN1CCN(CCC[Si](C)(C)O[Si]2(O)n3c4c5ccccc5c3N=C3N=C(N=c5c6ccccc6c(n52)=NC2=NC(=N4)c4ccccc42)c2ccccc23)CC1 (centres unmarked) [Compound XXVIII, HOSiPcOSi(CH3)2 (CH2)3 NC4 H8 NCH3]	–	–	–	24 days	1.8 kJ/m^2	–	–	–	–	–	photosensitizing activity, killing V79 cells (in words) ([1]; listed as Pc XXVIII): photodynamic killing efficiency is superior to PcXII; photosensitizing activity, killing V79 cells (in words) ([1]; listed as PcXXVIII): most active at killing V79 cells; also recorded: highest activity in killing V79 cells of all of the phthalocyanines; Minimum Demonstrated Condition to induce apoptosis: C × F ([2]; 0.3 μM): 0.9 μm × kJ/m^2; Minimum Demonstrated Condition to induce apoptosis: Fluence ([2]; 0.3 μM): 3.0 kJ/m^2; effect on tumor volume / growth (in words) ([4]; listed as Pc XXVIII): significantly impair the growth of the tumors; effect on tumor volume / growth (in words) ([4]; listed as PcXXVIII): particularly effective in reducing tumor volume
C[Si](C)(CCCCNS(C)(=O)=O)O[Si]1(O)n2c3c4ccccc4c2N=C2N=C(N=c4c5ccccc5c(n41)=NC1=NC(=N3)c3ccccc31)c1ccccc12 (centres unmarked) [Compound IX, HOSiPCOSi(CH3)2 (CH2)4 NHSO2 CH3]	0.3 n Moles/10^6 cells/μM	0.3 n Moles/10^6 cells/μM	particularly effective in reducing tumor volume	11 days	–	4.0 μm × kJ/m^2	8.0 kJ/m^2	12.0 μm × kJ/m^2	12.0 kJ/m^2	activity increases and then decreases as the concentration is raised	Maximum Effect (% survival) ([1]; 0.5 μM, at 9 kJ/m^2): 44%; Minimum Demonstrated Condition to induce apoptosis: C × F ([2]; 0.3 μM): 3.6 μm × kJ/m^2; Minimum Demonstrated Condition to induce apoptosis: Fluence ([2]; 0.3 μM): 12.0 kJ/m^2
C[Si](C)(CCCCN)O[Si]1(O[Si](C)(C)CCCCN)n2c3c4ccccc4c2N=C2N=C(N=c4c5ccccc5c(n41)=NC1=NC(=N3)c3ccccc31)c1ccccc12 [Compound VII, SiPc[OSi(CH3)2 (CH2)4 NH2]2]	0.2 n Moles/10^6 cells/μM	0.2 n Moles/10^6 cells/μM	–	–	–	1.5 μm × kJ/m^2	3.0 kJ/m^2	–	–	–	LD 90 ([1]; 0.5 μM, preplated data only): 4 kJ/m^2; photosensitizing activity, killing V79 cells (in words) ([1]; listed as PcVII): most active at killing V79 cells; also recorded: one of the better photosensitizers; uptake by V79 cells (in words) [3]: poor uptake
HOSiPcOSi(CH3)2 (CH2)3 N[(CH2)3 N(CH3)2 ]2 [Compound XXVII]	1.5 n Moles/10^6 cells/μM	1.5 n Moles/10^6 cells/μM	–	–	6.8 kJ/m^2	–	–	–	–	–	uptake by V79 cells (in words) [3]: taken up particulary well
CCN(CCC[Si](C)(C)O[Si]1(O)n2c3c4ccccc4c2N=C2N=C(N=c4c5ccccc5c(n41)=NC1=NC(=N3)c3ccccc31)c1ccccc12)CCN(C)C (centres unmarked) [Compound X, HOSiPcOSi(CH3)2 (CH2)3 N(CH2 CH3)(CH2)2 N(CH3)2]	0.7 n Moles/10^6 cells/μM	0.7 n Moles/10^6 cells/μM	–	–	7 kJ/m^2	3.0 μm × kJ/m^2	6.0 kJ/m^2	3.0 μm × kJ/m^2	3.0 kJ/m^2	the same minimum value for the C×F product was obtained in both cases	photosensitizer activity in LY-R cells (in words) [5]: active photosensitizers; activity relative to PcXII [5]: 44%; LD 90 [5]: 4.19 kJ/m^2; LD50 [5]: 2.38 kJ/m^2
CCN(CCC[Si](C)(C)O[Si]1(O[Si](C)(C)CCCN(CC)CCN(C)C)n2c3c4ccccc4c2N=C2N=C(N=c4c5ccccc5c(n41)=NC1=NC(=N3)c3ccccc31)c1ccccc12)CCN(C)C [Compound XVIII, SiPc[OSi(CH3)2 (CH2)3 N(CH2 CH3)(CH2)2 N(CH3)2]2]	–	–	particularly effective in reducing tumor volume	12 days	–	5.0 μm × kJ/m^2	10.0 kJ/m^2	3.0 μm × kJ/m^2	3.0 kJ/m^2	minimum value of C×F differed only slightly for the two conditions	LD 90 ([1]; 1 μM, 18 h): 7 kJ/m^2; photosensitizing activity, killing V79 cells (in words) [1]: good activity; activity relative to PcXII [5]: 22%; LD 90 [5]: 7.81 kJ/m^2; LD50 [5]: 5.00 kJ/m^2; photosensitizer activity in LY-R cells (in words) ([5]; listed as PcXVIII): active photosensitizers; also recorded: least active
